Test results from patent US9096591B2, “Tetracyclic compounds” (Medivation Technologies, Inc., priority 2007, dated 2015).
Read-outs that look alike come from different tables or passages of the source.

Tests used:
[1] = target: T1, human recombinant histamine H2 receptor (Homo sapiens, UniProt P25021); test: Histamine H2 radioligand binding ([125I]Aminopotentidine); conditions: for inhibition at 0.3 µM: 0.3 μM compound
T1 construct: expressed in transfected cells; host or cells: CHO-K1 cells
Summary of the method: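 Test compounds were assessed for their ability to displace radioligand from the human recombinant histamine H2 receptor. Non-specific binding was determined in the presence of 3 μM Tiotidine, and results were expressed as percent inhibition of specific binding, with 1% DMSO serving as the vehicle.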

[2] = target: T2, human recombinant adrenergic α1D receptor (Homo sapiens, UniProt P25100); test: Adrenergic α1D radioligand binding ([3H]Prozosin); set-up: Inhibition of ligand binding, Adren. alpha1D: concentration or dose not given beside the values; conditions: percent inhibition of specific binding
T2 construct: expressed in transfected cells; host or cells: HEK-293 cells
T2 sequence (P25100 1-572): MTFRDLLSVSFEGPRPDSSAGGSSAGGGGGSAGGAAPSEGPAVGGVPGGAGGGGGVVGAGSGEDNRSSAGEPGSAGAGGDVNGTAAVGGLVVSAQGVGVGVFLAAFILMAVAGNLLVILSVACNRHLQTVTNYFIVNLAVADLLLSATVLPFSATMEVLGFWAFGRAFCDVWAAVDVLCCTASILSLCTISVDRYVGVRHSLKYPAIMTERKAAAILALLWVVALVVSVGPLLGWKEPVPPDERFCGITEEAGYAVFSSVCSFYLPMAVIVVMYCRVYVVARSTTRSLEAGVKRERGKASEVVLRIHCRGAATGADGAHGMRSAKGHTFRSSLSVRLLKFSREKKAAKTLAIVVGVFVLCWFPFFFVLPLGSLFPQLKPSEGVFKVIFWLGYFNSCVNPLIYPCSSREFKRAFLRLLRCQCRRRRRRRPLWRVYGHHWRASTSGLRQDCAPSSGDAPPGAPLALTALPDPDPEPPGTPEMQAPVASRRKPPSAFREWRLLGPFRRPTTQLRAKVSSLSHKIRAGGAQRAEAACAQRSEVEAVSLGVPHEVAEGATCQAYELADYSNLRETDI
Experimental: Compounds of invention were incubated with 0.6 nM [^3H]Prozosin for 60 minutes at 25° C. Non-specific binding was estimated in the presence of 10 μM phentolamine. Receptor proteins were filtered and washed, the filters were then counted to determine [^3H]Prozosin specifically bound. […] Biochemical assay results are presented as the percent inhibition of specific binding in Table 6.

[3] = target: T3, human recombinant adrenergic α2B receptor (Homo sapiens, UniProt P18089); test: Adrenergic α2B radioligand binding ([3H]Rauwolscine); set-up: Inhibition of ligand binding, Adren. alpha2B: concentration or dose not given beside the values; conditions: percent inhibition of specific binding
T3 construct: expressed in transfected cells; host or cells: CHO-K1 cells
T3 sequence (P18089 1-450): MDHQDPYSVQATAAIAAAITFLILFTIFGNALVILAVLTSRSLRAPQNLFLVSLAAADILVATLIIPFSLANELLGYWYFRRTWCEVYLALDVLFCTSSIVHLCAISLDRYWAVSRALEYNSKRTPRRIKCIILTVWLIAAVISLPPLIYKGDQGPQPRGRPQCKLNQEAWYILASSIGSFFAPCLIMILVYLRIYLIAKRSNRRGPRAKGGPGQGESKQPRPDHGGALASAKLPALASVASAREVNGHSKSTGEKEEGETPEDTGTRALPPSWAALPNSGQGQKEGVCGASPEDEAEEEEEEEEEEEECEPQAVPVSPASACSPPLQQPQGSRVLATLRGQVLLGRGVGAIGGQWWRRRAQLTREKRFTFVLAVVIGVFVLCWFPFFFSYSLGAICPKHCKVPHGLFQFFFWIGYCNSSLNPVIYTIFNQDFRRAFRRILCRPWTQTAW
Summary of the method: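 Membranes from CHO-K1 cells expressing the receptor, in 50 mM Tris-HCl pH 7.4 with 12.5 mM MgCl2, 1 mM EDTA, 0.2% BSA, incubated with compounds and 2.5 nM [3H]Rauwolscine for 60 minutes at 25 °C.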

[4] = target: T4, human recombinant serotonin (5-Hydroxytryptamine) 5-HT2A receptor (Homo sapiens, UniProt P28223); test: Serotonin 5-HT2A radioligand binding ([3H]Ketanserin); conditions: percent inhibition of specific binding
T4 construct: expressed in transfected cells; host or cells: CHO-K1 cells
T4 sequence (P28223 whole entry): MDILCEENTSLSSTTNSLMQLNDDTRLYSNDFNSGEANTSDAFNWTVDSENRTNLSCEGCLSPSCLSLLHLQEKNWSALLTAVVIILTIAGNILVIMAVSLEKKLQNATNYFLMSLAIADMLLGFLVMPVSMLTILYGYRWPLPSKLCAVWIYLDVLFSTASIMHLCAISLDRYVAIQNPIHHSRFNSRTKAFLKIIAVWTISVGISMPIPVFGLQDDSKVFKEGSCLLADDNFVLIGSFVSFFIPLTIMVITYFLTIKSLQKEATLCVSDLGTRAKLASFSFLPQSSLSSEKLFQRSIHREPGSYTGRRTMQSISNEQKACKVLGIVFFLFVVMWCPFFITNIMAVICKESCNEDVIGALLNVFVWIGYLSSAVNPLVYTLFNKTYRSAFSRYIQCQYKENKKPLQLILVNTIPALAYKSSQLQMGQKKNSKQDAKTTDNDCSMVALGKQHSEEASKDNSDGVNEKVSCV
Experimental: (§1) Compounds of the invention were incubated with 0.5 nM [^3H]Ketanserin for 60 minutes at 25° C. Non-specific binding was estimated in the presence of 1 μM Mianserin. Receptor proteins were filtered and washed, the filters were then counted to determine [^3H]Ketanserin specifically bound. […] Biochemical assay results are presented as the percent inhibition of specific binding in Table 6.

[5] = target: T5, human recombinant serotonin (5-Hydroxytryptamine) 5-HT2C receptor (Homo sapiens, UniProt P28335); test: Serotonin 5-HT2C radioligand binding ([3H]Mesulergine); set-up: Inhibition of ligand binding, Ser. 5-HT2C: concentration or dose not given beside the values; conditions: percent inhibition of specific binding
T5 construct: expressed in transfected cells; host or cells: CHO-K1 cells
T5 sequence (P28335 33-458): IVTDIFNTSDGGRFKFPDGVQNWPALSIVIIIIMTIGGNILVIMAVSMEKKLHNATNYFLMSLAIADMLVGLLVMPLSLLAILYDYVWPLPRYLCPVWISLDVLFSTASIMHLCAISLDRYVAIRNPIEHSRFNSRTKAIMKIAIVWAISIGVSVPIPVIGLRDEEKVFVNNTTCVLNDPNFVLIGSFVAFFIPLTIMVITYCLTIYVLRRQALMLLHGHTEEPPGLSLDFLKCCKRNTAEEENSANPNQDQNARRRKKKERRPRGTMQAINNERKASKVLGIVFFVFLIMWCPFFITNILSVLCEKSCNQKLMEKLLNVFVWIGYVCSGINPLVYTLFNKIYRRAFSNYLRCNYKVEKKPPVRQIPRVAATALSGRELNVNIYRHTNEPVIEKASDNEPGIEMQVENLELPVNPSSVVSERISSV
Experimental: as §1, with “1” for “0.5”, “[^3H]Mesulergine” for “[^3H]Ketanserin”

[6] = percent inhibition of specific binding, screened at 1 μM, read-out: Inhibition of ligand binding, Hist. H2
[7] = 0.1 nM [125I]Aminopotentidine, read-out: Histamine Binding H2, percent inhibition of specific binding
[8] = 1 μM compound, 0.1 nM [125I]Aminopotentidine, read-out: Histamine Binding H2, percent inhibition of specific binding

T1 sequence (P25021 whole entry): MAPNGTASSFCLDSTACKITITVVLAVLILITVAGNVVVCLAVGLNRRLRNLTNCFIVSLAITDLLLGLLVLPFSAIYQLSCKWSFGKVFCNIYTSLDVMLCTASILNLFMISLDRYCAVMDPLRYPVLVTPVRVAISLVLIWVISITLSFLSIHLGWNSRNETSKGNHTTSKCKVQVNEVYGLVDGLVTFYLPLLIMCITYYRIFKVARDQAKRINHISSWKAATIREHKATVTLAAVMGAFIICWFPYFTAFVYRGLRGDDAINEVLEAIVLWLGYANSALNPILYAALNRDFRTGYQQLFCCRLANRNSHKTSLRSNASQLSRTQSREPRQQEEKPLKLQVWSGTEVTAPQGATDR

Compound	inhibition at 1 µM [1, 6] [%]	Inhibition of ligand binding, Adren. alpha1D [2] [%]	Inhibition of ligand binding, Adren. alpha2B [3] [%]	Inhibition of ligand binding, Ser. 5-HT2A [4] [%]	Inhibition of ligand binding, Ser. 5-HT2C [5] [%]	inhibition at 0.3 µM [1, 7] [%]	inhibition at 1 µM [1, 8] [%]	inhibition at 0.1 µM ([1]; 0.1 μM compound, 0.1 nM [125I]Aminopotentidine, read-out: Histamine Binding H2, percent inhibition of specific binding) [%]
Cc1ccc(CCn2c3c(c4cc(C(F)(F)F)ccc42)CN(C)CC3)cn1 [Compound 53]	4	13	34	−1	12	–	–	–
Cc1ccc2c(c1)c1c(n2CCc2ccc(C)[n+]([O-])c2)CCN(C)C1 [Compound 394, 5-(2-(2,8-dimethyl-3,4-dihydro-1H-pyrido[4,3-b]indol-5(2H)-yl)ethyl)-2-methylpyridine 1-oxide]	-2	9	19	3	−8	–	–	–
Cc1ccc2c(c1)c1c(n2CCc2ccc(C)nc2)CCN(C2CC2)C1 [Compound 51]	17	22	10	0	2	–	–	–
Cc1ccc2c(c1)c1c(n2CCc2ccc(C)nc2)CC(=O)N(C)C1 [Compound 195, 1,2-dihydro-2,8-dimethyl-5-(2-(6-methylpyridin-3-yl)ethyl)-4H-pyrido[4,3-b]indol-3(5H)-one]	22	15	7	−4	−5	–	–	–
CCc1ccc(CCn2c3c(c4cc(Cl)ccc42)CN(C)CC3)cn1 [Compound 371, 8-Chloro-5-[2-(6-ethyl-pyridin-3-yl)-ethyl]-2-methyl-2,3,4,5-tetrahydro-1H-pyrido[4,3-b]indole]	74	88	98	93	87	–	–	–
Cc1ccc2c(c1)c1c(n2CC(=O)N2Cc3ccccc3C2)CCN(C)C1 [Compound 397, 2-(1,2,3,4-tetrahydro-2,8-dimethylpyrido[4,3-b]indol-5-yl)-1-(isoindolin-2-yl)ethanone]	32	19	40	50	44	–	–	–
CCCc1ccc(CCn2c3c(c4cc(C)ccc42)CN(C)CC3)cn1 [Compound 452, 2,8-Dimethyl-5-[2-(6-propyl-pyridin-3-yl)-ethyl]-2,3,4,5-tetrahydro-1H-pyrido[4,3-b]indole]	92	82	104	97	93	–	–	–
Cc1ncc(CCn2c3c(c4cc(C(C)C)ccc42)CN(C)CC3)cn1 [Compound 370, 8-Isopropyl-2-methyl-5-[2-(2-methyl-pyrimidin-5-yl)-ethyl]-2,3,4,5-tetrahydro-1H-pyrido[4,3-b]indole]	18	71	87	15	40	–	–	–
Cc1ccc(CCn2c3c(c4cc(C(F)(F)F)ccc42)CN(C)CC3)cc1 [Compound 47]	78	81	101	92	89	–	–	–
CN1CCc2c(c3cc(Cl)ccc3n2CCN2CCCCC2)C1 [Compound 189]	87	28	72	–	85	–	–	–
CN1CCc2c(c3cc(F)ccc3n2CCc2ccc(Cl)cc2)C1 [Compound 249]	88	65	109	–	98	–	–	–
CN1CCc2c(c3cc(F)ccc3n2CCc2ccc(F)cc2)C1 [Compound 253]	73	81	104	–	93	–	–	–
Cc1ccc(C(O)Cn2c3c(c4cc(C)ccc42)CN(C)CC3)cc1 (racemic) [Compound 28, racemic-2-(1,2,3,4-tetrahydro-2,8-dimethylpyrido[4,3-b]indol-5-yl)-1-p-tolylethanol]	84	89	–	–	100	40	58	–
CN1CCc2c(c3ccccc3n2CCc2ccccc2)C1 [Compound 2, 2,3,4,5-tetrahydro-2-methyl-5-phenethyl-1H-pyrido[4,3-b]indole]	81	72	–	96	97	56	81	34
Cc1ccc2c(c1)c1c(n2CC(=O)N2CCC(C)CC2)CCN(C)C1 [Compound 251]	21	14	8	–	23	–	–	–
CC(C)N1CCN(C(=O)Cn2c3c(c4cc(Cl)ccc42)CN(C)CC3)CC1 [Compound 248]	7	26	75	–	59	–	–	–
Cc1ccc2c(c1)c1c(n2CC(=O)N2CCCC2)CCN(C)C1 [Compound 257, 2-(1,2,3,4-tetrahydro-2,8-dimethylpyrido[4,3-b]indol-5-yl)-1-(pyrrolidin-1-yl)ethanone]	1	3	20	–	47	–	–	–
